The results in this text go back to US10633419B2, “Immunomodulators” (BRISTOL-MYERS SQUIBB COMPANY, priority 2014, dated 2020).

The term IC50 denotes the concentration needed to halve the response being measured.

Each structure is given as a SMILES string. Starred links: 1 amine or outer side, 2 acyl side, 3 side chain; linkers in the order of their positions; H or OH if unused. Positions of bridges follow the written chain, without caps; N, C: chain ends. Non-standard residues stand in square brackets, D forms with d. Residues, ends and D or L forms follow the SMILES beside them. *: point of attachment. Trp(1-CH2COOH) = N[C@@H](Cc1cn(CC(=O)O)c2ccccc12)C(=O)O; X8 = O=C(O)CCCCCCCCCCCCNC(=O)CCC(=O)NCCCOCCOCCOCCCN*; X26 = O=C(O)Cn1cc(CC(N[*:1])C(=O)[*:2])c2ccccc21; NH(CH2)16COOH = O=C(O)CCCCCCCCCCCCCCCCN*; NH(CH2)14COOH = O=C(O)CCCCCCCCCCCCCCN*; d(cisHyp) = O=C(O)[C@H]1C[C@@H](O)CN1; NH(CH2)12COOH = O=C(O)CCCCCCCCCCCCN*; cisHyp = O=C(O)[C@@H]1C[C@H](O)CN1; Hyp = O=C(O)[CH]1C[CH](O)CN1; X32 = O=C(O)CCCCCCCCCCCCCCCCCCN*; NMeNle = CCCC[CH](NC)C(=O)O; X20 = O=C(O)CCCCCCCCCCCCCN*; NMeA = CN[CH](C)C(=O)O; Dab = NCC[CH](N)C(=O)O; Dap = NC[CH](N)C(=O)O

In one assay the target is T1, PD-L1 (Homo sapiens, UniProt Q9NZQ7).
T1 construct: hPDL1(19-239)-TVMV-His; made in house; host or cells: HEK293T
T1 sequence (Q9NZQ7 with tags, fused parts or gaps): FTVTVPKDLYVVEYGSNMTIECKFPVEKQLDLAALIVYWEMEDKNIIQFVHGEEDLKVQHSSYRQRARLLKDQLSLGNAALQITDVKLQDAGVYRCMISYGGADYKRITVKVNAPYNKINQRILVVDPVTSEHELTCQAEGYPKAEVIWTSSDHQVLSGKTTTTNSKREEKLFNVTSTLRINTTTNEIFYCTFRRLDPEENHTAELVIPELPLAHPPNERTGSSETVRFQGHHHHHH
As to the kind of experiment: PD-1/PD-L1 Homogenous Time-Resolved Fluorescence (HTRF) binding assay (PD-1-Ig/PD-L1-His). Particulars: inhibition of PD-1-Ig binding to PD-L1-TVMV-His; value given as number; read-out: HTRF IC50. Summed up:
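Inhibitors pre-incubated 15 min with PD-L1-His (10 nM final), then PD-1-Ig (20 nM final) added for 15 min in dPBS/0.1% BSA/0.05% Tween-20. Eu-cryptate anti-Ig (1 nM) and APC anti-His (20 nM) added, 30 min equilibration, 665/620 nm HTRF ratio read.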
As to `CCCCC1C(=O)N(C)C(CCCC)C(=O)NC(CC(C)C)C(=O)NC(C(=O)NCC(=O)NCCCCCCCCCCCCCCCCC(=O)O)CSCC(=O)NC(Cc2ccc(O)cc2)C(=O)N(C)C(C)C(=O)NC(CC(N)=O)C(=O)N2CCCC2C(=O)NC(CN)C(=O)NC(CC(C)C)C(=O)N2CC(O)CC2C(=O)NC(Cc2c[nH]c3ccccc23)C(=O)NC(CCN)C(=O)NC(Cc2cn(CC(=O)O)c3ccccc23)C(=O)N1C` (stereo not shown) [Example 11188] ({CH2CO}-Y[NMeA]NP[Dap]L[Hyp]W[Dab][X26][NMeNle][NMeNle]LCG-{NH(CH2)16COOH}; thioether N-14; configuration not given here), the IC50 amounted to 280 nM.

Still in this assay, the particulars now being: inhibition of PD-1-Ig binding to PD-L1-TVMV-His; value given as range class; read-out: HTRF IC50.
Regarding `CCCC[C@H]1C(=O)N(C)[C@@H](CCCC)C(=O)N[C@@H](CC(C)C)C(=O)N[C@H](C(=O)NCC(=O)NCC(=O)NCCCCCCCCCCCCCCCCC(=O)O)CSCC(=O)N[C@@H](Cc2ccc(O)cc2)C(=O)N(C)[C@@H](C)C(=O)N[C@@H](CC(N)=O)C(=O)N2CCC[C@H]2C(=O)N[C@@H](CN)C(=O)N[C@@H](CC(C)C)C(=O)N2C[C@H](O)C[C@H]2C(=O)N[C@@H](Cc2c[nH]c3ccccc23)C(=O)N[C@@H](CCN)C(=O)N[C@@H](Cc2cn(CC(=O)O)c3ccccc23)C(=O)N1C` [Example 11189] ({CH2CO}-Y[NMeA]NP[Dap]L[Hyp]W[Dab][Trp(1-CH2COOH)][NMeNle][NMeNle]LCGG-{NH(CH2)16COOH}; thioether N-14), the IC50 fell in the range of 100 to 1600 nM.

`CCCC[C@H]1C(=O)N(C)[C@@H](CCCC)C(=O)N[C@@H](CC(C)C)C(=O)N[C@H](C(=O)NCC(=O)N[C@H](CC(=O)O)C(=O)NCCCCCCCCCCCCCCCCC(=O)O)CSCC(=O)N[C@@H](Cc2ccc(O)cc2)C(=O)N(C)[C@@H](C)C(=O)N[C@@H](CC(N)=O)C(=O)N2CCC[C@H]2C(=O)N[C@@H](CN)C(=O)N[C@@H](CC(C)C)C(=O)N2C[C@H](O)C[C@H]2C(=O)N[C@@H](Cc2c[nH]c3ccccc23)C(=O)N[C@@H](CCN)C(=O)N[C@@H](Cc2cn(CC(=O)O)c3ccccc23)C(=O)N1C` [Example 11190] ({CH2CO}-Y[NMeA]NP[Dap]L[Hyp]W[Dab][Trp(1-CH2COOH)][NMeNle][NMeNle]LCG[dD]-{NH(CH2)16COOH}; thioether N-14): the IC50 lay in the range of 10 to 99 nM.

Turning to `CCCC[C@H]1C(=O)N(C)[C@@H](CCCC)C(=O)N[C@@H](CC(C)C)C(=O)N[C@H](C(=O)NCC(=O)NCC(=O)NCCCCCCCCCCCCCCCCCCC(=O)O)CSCC(=O)N[C@@H](Cc2ccc(O)cc2)C(=O)N(C)[C@@H](C)C(=O)N[C@@H](CC(N)=O)C(=O)N2CCC[C@H]2C(=O)N[C@@H](CN)C(=O)N[C@@H](CC(C)C)C(=O)N2C[C@H](O)C[C@H]2C(=O)N[C@@H](Cc2c[nH]c3ccccc23)C(=O)N[C@@H](CCN)C(=O)N[C@@H](Cc2cn(CC(=O)O)c3ccccc23)C(=O)N1C` [Example 11193] ({CH2CO}-Y[NMeA]NP[Dap]L[Hyp]W[Dab][Trp(1-CH2COOH)][NMeNle][NMeNle]LCGG-X32; thioether N-14), the IC50 was 10 to 99 nM.

Turning to `CCCC[C@H]1C(=O)N(C)[C@@H](CCCC)C(=O)N[C@@H](CC(C)C)C(=O)N[C@H](C(=O)NCC(=O)NCC(=O)NCCCCCCCCCCCCCCC(=O)O)CSCC(=O)N[C@@H](Cc2ccc(O)cc2)C(=O)N(C)[C@@H](C)C(=O)N[C@@H](CC(N)=O)C(=O)N2CCC[C@H]2C(=O)N[C@@H](CN)C(=O)N[C@@H](CC(C)C)C(=O)N2C[C@H](O)C[C@H]2C(=O)N[C@@H](Cc2c[nH]c3ccccc23)C(=O)N[C@@H](CCN)C(=O)N[C@@H](Cc2cn(CC(=O)O)c3ccccc23)C(=O)N1C` [Example 11194] ({CH2CO}-Y[NMeA]NP[Dap]L[Hyp]W[Dab][Trp(1-CH2COOH)][NMeNle][NMeNle]LCGG-{NH(CH2)14COOH}; thioether N-14), the IC50 lay in the range of 10 to 99 nM.

On to `CCCC[C@H]1C(=O)N(C)[C@@H](CCCC)C(=O)N[C@@H](CC(C)C)C(=O)N[C@H](C(=O)NCC(=O)N[C@H](CC(=O)O)C(=O)NCCCCCCCCCCCCCCC(=O)O)CSCC(=O)N[C@@H](Cc2ccc(O)cc2)C(=O)N(C)[C@@H](C)C(=O)N[C@@H](CC(N)=O)C(=O)N2CCC[C@H]2C(=O)N[C@@H](CN)C(=O)N[C@@H](CC(C)C)C(=O)N2C[C@H](O)C[C@H]2C(=O)N[C@@H](Cc2c[nH]c3ccccc23)C(=O)N[C@@H](CCN)C(=O)N[C@@H](Cc2cn(CC(=O)O)c3ccccc23)C(=O)N1C` [Example 11195] ({CH2CO}-Y[NMeA]NP[Dap]L[Hyp]W[Dab][Trp(1-CH2COOH)][NMeNle][NMeNle]LCG[dD]-{NH(CH2)14COOH}; thioether N-14), for which the IC50 lay in the range of 10 to 99 nM.

As to `CCCC[C@H]1C(=O)N(C)[C@@H](CCCC)C(=O)N[C@@H](CC(C)C)C(=O)N[C@H](C(=O)NCCCCCCCCCCCCCCC(=O)O)CSCC(=O)N[C@@H](Cc2ccc(O)cc2)C(=O)N(C)[C@@H](C)C(=O)N[C@@H](CC(N)=O)C(=O)N2CCC[C@H]2C(=O)N[C@@H](CN)C(=O)N[C@@H](CC(C)C)C(=O)N2C[C@H](O)C[C@H]2C(=O)N[C@@H](Cc2c[nH]c3ccccc23)C(=O)N[C@@H](CCN)C(=O)N[C@@H](Cc2cn(CC(=O)O)c3ccccc23)C(=O)N1C` [Example 11196] ({CH2CO}-Y[NMeA]NP[Dap]L[Hyp]W[Dab][Trp(1-CH2COOH)][NMeNle][NMeNle]LC-{NH(CH2)14COOH}; thioether N-14), the IC50 fell in the range of 10 to 99 nM.

With `CCCC[C@H]1C(=O)N(C)[C@@H](CCCC)C(=O)N[C@@H](CC(C)C)C(=O)N[C@H](C(=O)NCC(=O)NCCCCCCCCCCCCCCC(=O)O)CSCC(=O)N[C@@H](Cc2ccc(O)cc2)C(=O)N(C)[C@@H](C)C(=O)N[C@@H](CC(N)=O)C(=O)N2CCC[C@H]2C(=O)N[C@@H](CN)C(=O)N[C@@H](CC(C)C)C(=O)N2C[C@H](O)C[C@H]2C(=O)N[C@@H](Cc2c[nH]c3ccccc23)C(=O)N[C@@H](CCN)C(=O)N[C@@H](Cc2cn(CC(=O)O)c3ccccc23)C(=O)N1C` [Example 11197] ({CH2CO}-Y[NMeA]NP[Dap]L[Hyp]W[Dab][Trp(1-CH2COOH)][NMeNle][NMeNle]LCG-{NH(CH2)14COOH}; thioether N-14), the IC50 was 10 to 99 nM.

Take `CCCC[C@H]1C(=O)N(C)[C@@H](CCCC)C(=O)N[C@@H](CC(C)C)C(=O)N[C@H](C(=O)NCC(=O)NCC(=O)N[C@@H](CC(=O)O)C(=O)NCCCCCCCCCCCCCC(=O)O)CSCC(=O)N[C@@H](Cc2ccc(O)cc2)C(=O)N(C)[C@@H](C)C(=O)N[C@@H](CC(N)=O)C(=O)N2CCC[C@H]2C(=O)N[C@@H](CN)C(=O)N[C@@H](CC(C)C)C(=O)N2C[C@H](O)C[C@@H]2C(=O)N[C@@H](Cc2c[nH]c3ccccc23)C(=O)N[C@@H](CCN)C(=O)N[C@@H](Cc2cn(CC(=O)O)c3ccccc23)C(=O)N1C` [Example 11201] ({CH2CO}-Y[NMeA]NP[Dap]L[d(cisHyp)]W[Dab][Trp(1-CH2COOH)][NMeNle][NMeNle]LCGGD-X20; thioether N-14): the IC50 lay in the range of 10 to 99 nM.

For `CCCC[C@H]1C(=O)N(C)[C@@H](CCCC)C(=O)N[C@@H](CC(C)C)C(=O)N[C@H](C(=O)NCCCCCCCCCCCCC(=O)O)CSCC(=O)N[C@@H](Cc2ccc(O)cc2)C(=O)N(C)[C@@H](C)C(=O)N[C@@H](CC(N)=O)C(=O)N2CCC[C@@H]2C(=O)N[C@@H](CN)C(=O)N[C@@H](CC(C)C)C(=O)N2C[C@@H](O)C[C@H]2C(=O)N[C@@H](Cc2c[nH]c3ccccc23)C(=O)N[C@@H](CCN)C(=O)N[C@@H](Cc2cn(CC(=O)O)c3ccccc23)C(=O)N1C` [Example 11204] ({CH2CO}-Y[NMeA]N[dP][Dap]L[cisHyp]W[Dab][Trp(1-CH2COOH)][NMeNle][NMeNle]LC-{NH(CH2)12COOH}; thioether N-14), the IC50 lay in the range of 10 to 99 nM.

Turning to `CCCC[C@H]1C(=O)N(C)[C@@H](CCCC)C(=O)N[C@@H](CC(C)C)C(=O)N[C@H](C(=O)N[C@H](CC(=O)O)C(=O)NCC(=O)NCCCCCCCCCCCCC(=O)O)CSCC(=O)N[C@@H](Cc2ccc(O)cc2)C(=O)N(C)[C@@H](C)C(=O)N[C@@H](CC(=O)O)C(=O)N2CCC[C@@H]2C(=O)N[C@@H](Cc2cnc[nH]2)C(=O)N[C@@H](CCCCN)C(=O)N2C[C@@H](O)C[C@H]2C(=O)N[C@@H](Cc2c[nH]c3ccccc23)C(=O)N[C@@H](CCCCN)C(=O)N[C@@H](Cc2cn(CC(=O)O)c3ccccc23)C(=O)N1C` [Example 11211] ({CH2CO}-Y[NMeA]D[dP]HK[cisHyp]WK[Trp(1-CH2COOH)][NMeNle][NMeNle]LC[dD]G-{NH(CH2)12COOH}; thioether N-14), the half-inhibitory concentration (IC50) was 0.3 to 9.9 nM.

As to `CCCC[C@H]1C(=O)N(C)[C@@H](CCCC)C(=O)N[C@@H](CC(C)C)C(=O)N[C@H](C(=O)NCC(=O)N[C@@H](CC(=O)O)C(=O)NCCCCCCCCCCCCC(=O)O)CSCC(=O)N[C@@H](Cc2ccc(O)cc2)C(=O)N(C)[C@@H](C)C(=O)N[C@@H](CC(=O)O)C(=O)N2CCC[C@H]2C(=O)N[C@@H](Cc2cnc[nH]2)C(=O)N[C@@H](CCCCN)C(=O)N2C[C@H](O)C[C@H]2C(=O)N[C@@H](Cc2c[nH]c3ccccc23)C(=O)N[C@@H](CCCCN)C(=O)N[C@@H](Cc2cn(CC(=O)O)c3ccccc23)C(=O)N1C` [Example 11213] ({CH2CO}-Y[NMeA]DPHK[Hyp]WK[Trp(1-CH2COOH)][NMeNle][NMeNle]LCGD-{NH(CH2)12COOH}; thioether N-14), the IC50 fell in the range of 10 to 99 nM.

Consider `CCCC[C@H]1C(=O)N(C)[C@@H](CCCC)C(=O)N[C@@H](CC(C)C)C(=O)N[C@H](C(=O)NCCCOCCOCCOCCCNC(=O)CCC(=O)NCCCCCCCCCCCCC(=O)O)CSCC(=O)N[C@@H](Cc2ccc(O)cc2)C(=O)N(C)[C@@H](C)C(=O)N[C@@H](CC(N)=O)C(=O)N2CCC[C@H]2C(=O)N[C@@H](CN)C(=O)N[C@@H](CC(C)C)C(=O)N2C[C@H](O)C[C@H]2C(=O)N[C@@H](Cc2c[nH]c3ccccc23)C(=O)N[C@@H](CCN)C(=O)N[C@@H](Cc2cn(CC(=O)O)c3ccccc23)C(=O)N1C` [Example 11214] ({CH2CO}-Y[NMeA]NP[Dap]L[Hyp]W[Dab][Trp(1-CH2COOH)][NMeNle][NMeNle]LC-X8; thioether N-14), for which the IC50 lay in the range of 10 to 99 nM.
